Measured values from patent US6472418B1, “Non-peptide NK1 receptors antagonists” (Warner-Lambert Company, priority 1998, dated 2002).

These compounds were tested against T1, Human NK1 Receptor (Homo sapiens, UniProt P25103) (assay: In Vitro Human NK1 Receptor Binding Assay ([125I]Bolton-Hunter substance P displacement, IM9 cells)). Conditions: Human lymphoma IM9 cells, [125I]Bolton-Hunter substance P (0.05-0.1 nM), 50 min at 21° C.; Table 1; read-out: NK1 binding IC50.
T1 construct: endogenous in cells; host or cells: Human lymphoma IM9 cells (whole cells)
T1 sequence (P25103 whole entry): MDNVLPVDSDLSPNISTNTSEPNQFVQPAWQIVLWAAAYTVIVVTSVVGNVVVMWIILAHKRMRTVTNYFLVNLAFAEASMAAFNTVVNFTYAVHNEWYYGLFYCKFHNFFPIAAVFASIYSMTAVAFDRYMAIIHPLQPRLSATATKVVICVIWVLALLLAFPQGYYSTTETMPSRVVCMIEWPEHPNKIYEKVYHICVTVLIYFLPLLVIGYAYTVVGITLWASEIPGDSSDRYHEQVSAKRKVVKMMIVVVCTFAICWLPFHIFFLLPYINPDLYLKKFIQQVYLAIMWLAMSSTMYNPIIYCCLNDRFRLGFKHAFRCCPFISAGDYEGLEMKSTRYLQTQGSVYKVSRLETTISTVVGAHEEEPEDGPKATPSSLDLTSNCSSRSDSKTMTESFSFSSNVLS
In short: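 Test compounds competed with 0.05-0.1 nM [125I]Bolton-Hunter substance P for binding to intact IM9 cells over 50 min at 21° C, pH 7.4 buffer with MnCl2 and peptidase inhibitors. […] [Sar9, Met(O2)11] substance P gave non-specific binding. Bound counts were measured after filtration and fitted iteratively.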

| Compound | IC50 [nM] |
| --- | --- |
| C[C@H](NC(=O)[C@@H](Cc1c[nH]c2ccccc12)NCc1cccc(OC(F)(F)F)c1)c1ccccc1 (relative stereo) [Example 16, 3-(1H-Indol-3-yl)-N-(1-phenyl-ethyl)-2-(3-trifluoromethoxy-benzylamino)-propionamide, [R-(R*,S*)]] | 9.1 |

Same assay, conditions: Human lymphoma IM9 cells, [125I]Bolton-Hunter substance P; Table 3, array-synthesis products; read-out: IC50 (nM) hNK1

| Compound | IC50 [nM] |
| --- | --- |
| CC(NC(=O)C(Cc1c[nH]c2ccccc12)NCc1cc2ccccc2o1)c1cccc(N(C)C)c1 (centres unmarked) [Example 227, 2-[(Benzofuran-2-ylmethyl)-amino]-N-[1-(3-dimethylamino-phenyl)-ethyl]-3-(1H-indol-3-yl)-propionamide] | 182 |
| O=C(NCc1ccccc1F)C(Cc1c[nH]c2ccccc12)NCc1cc2ccccc2o1 (centres unmarked) [Example 238, 2-[(Benzofuran-2-ylmethyl)-amino]-N-(2-fluoro-benzyl)-3-(1H-indol-3-yl)-propionamide] | 89 |
| O=C(NCc1cnc2ccccc2c1)C(Cc1c[nH]c2ccccc12)NCc1cc2ccccc2o1 (centres unmarked) [Example 205, 2-[(Benzofuran-2-ylmethyl)-amino]-3-(1H-indol-3-yl)-N-quinolin-3-ylmethyl-propionamide] | 2320 |
| CC(C)(CNC(=O)C(Cc1c[nH]c2ccccc12)NCc1cc2ccccc2o1)c1ccccc1 (centres unmarked) [Example 257, 2-[(Benzofuran-2-ylmethyl)-amino]-3-(1H-indol-3-yl)-N-(2-methyl-2-phenyl-propyl)-propionamide] | > 10000 |
| CC(NC(=O)C(Cc1c[nH]c2ccccc12)NCc1cc2ccccc2o1)c1ccn(C)c1 (centres unmarked) [Example 230, 2-[(Benzofuran-2-ylmethyl)-amino]-3-(1H-indol-3-yl)-N-[1-(1-methyl-1H-pyrrol-3-yl)-ethyl]-propionamide] | 21 |
| O=C(NCc1cccc(O)c1)C(Cc1c[nH]c2ccccc12)NCc1cc2ccccc2o1 (centres unmarked) [Example 308, 2-[(Benzofuran-2-ylmethyl)-amino]-N-(3-hydroxy-benzyl)-3-(1H-indol-3-yl)-propionamide] | 731 |
| O=C(NCc1ccco1)C(Cc1c[nH]c2ccccc12)NCc1cc2ccccc2o1 (centres unmarked) [Example 261, 2-[(Benzofuran-2-ylmethyl)-amino]-N-furan-2-ylmethyl-3-(1H-indol-3-yl)-propionamide] | 406 |
| O=C(NCCc1ccccc1F)C(Cc1c[nH]c2ccccc12)NCc1cc2ccccc2o1 (centres unmarked) [Example 274, 2-[(Benzofuran-2-ylmethyl)-amino]-N-[2-(2-fluoro-phenyl)-ethyl]-3-(1H-indol-3-yl)-propionamide] | 264 |
| O=C(NCc1ccccc1)C(Cc1c[nH]c2ccccc12)NCc1cc2ccccc2o1 (centres unmarked) [Example 254, 2-[(Benzofuran-2-ylmethyl)-amino]-N-benzyl-3-(1H-indol-3-yl)-propionamide] | 22 |
| CC(NC(=O)C(Cc1c[nH]c2ccccc12)NCc1cc2ccccc2o1)c1ccsc1 (centres unmarked) [Example 236, 2-[(Benzofuran-2-ylmethyl)-amino]-3-(1H-indol-3-yl)-N-(1-thiophen-3-yl-ethyl)-propionamide] | 7 |

Same assay, conditions: Table 4; [125I]Bolton-Hunter substance P displacement, human IM9 cells; read-out: IC50 (nM) hNK1

| Compound | IC50 [nM] |
| --- | --- |
| CC(NC(=O)C(C)(Cc1c[nH]c2ccccc12)NCc1ccc(Oc2ccccc2)cc1)c1ccccc1 (centres unmarked) [compound 347, 3-(1H-Indol-3-yl)-2-methyl-2-(4-phenoxy-benzylamino)-N-(1-phenyl-ethyl)-propionamide] | 3380 |
| COc1ccc2cc(CNC(C)(Cc3c[nH]c4ccccc34)C(=O)NC(C)c3ccccc3)oc2c1 (centres unmarked) [compound 319, 3-(1H-Indol-3-yl)-2-[(6-methoxy-benzofuran-2-ylmethyl)-amino]-2-methyl-N-(1-phenyl-ethyl)-propionamide] | 2100 |
| 3-(1H-Indol-3-yl)-2methyl-N-(1-phenyl-ethyl)-2-[(1-phenyl-1H-indol-2-ylmethyl)-amino]-propionamide [compound 333] | 3610 |
| 2-(3-Benzo[1,3]dioxol-5-yl-allylamino)-3-(1H-indol-3-yl)-2-methyl-N-(1-phenyl-ethyl)-propionamide [compound 339] | 343 |
| CC(NC(=O)C(C)(Cc1c[nH]c2ccccc12)NCc1ccsc1)c1ccccc1 (centres unmarked) [compound 358, 3-(1H-Indol-3-yl)-2-methyl-N-(1-phenyl-ethyl)-2-[(thiophen-3-ylmethyl)-amino]-propionamide] | 598 |
| CC(NC(=O)C(C)(Cc1c[nH]c2ccccc12)NCc1ccccn1)c1ccccc1 (centres unmarked) [compound 310, 3-(1H-Indol-3-yl)2-methyl-N-(1-phenyl-ethyl)-2-[(pyridin-2-ylmethyl)-amino]-propionamide] | 3320 |
| CC(NC(=O)C(C)(Cc1c[nH]c2ccccc12)NCc1cc2ccccc2o1)c1ccccc1 (centres unmarked) [compound 343, 2-[(Benzofuran-2-ylmethyl)-amino]-3-(1H-indol-3-yl)-2-methyl-N-(1-phenyl-ethyl)-propionamide] | 13 |
| CC(NC(=O)C(C)(Cc1c[nH]c2ccccc12)NCc1ccc2ccccc2n1)c1ccccc1 (centres unmarked) [compound 311, 3-(1H-Indol-3-yl)-2-methyl-N-(1-phenyl-ethyl)-2-[(quinolin-2-ylmethyl)-amino]-propionamide] | 88 |
| CC(NC(=O)C(C)(Cc1c[nH]c2ccccc12)NCc1c[nH]c2ccccc12)c1ccccc1 (centres unmarked) [compound 355, 3-(1H-Indol-3-yl)-2-[(1H-indol-3-ylmethyl)-amino]-2-methyl-N-(1-phenyl-ethyl)-propionamide] | 1050 |

Same assay, conditions: Table 5; [125I]Bolton-Hunter substance P displacement, human IM9 cells; read-out: IC50 (nM) hNK1

| Compound | IC50 [nM] |
| --- | --- |
| CC(C)C=CCC1=CCC(CNC(Cc2c[nH]c3ccccc23)C(=O)NC(C)c2ccccc2)CC1 (centres unmarked) [compound 366] | 4050 |
| CC(NC(=O)C(Cc1c[nH]c2ccccc12)NCC1CC=C(CCCC(C)(C)O)CC1)c1ccccc1 (centres unmarked) [compound 365] | 5280 |

Same assay, conditions: human NK1 receptor, IM9 cells, [125I]Bolton-Hunter substance P; read-out: IC50 (nM) hNK1

| Compound | IC50 [nM] |
| --- | --- |
| CC(Cc1c[nH]c2ccccc12)(NCc1cc2ccccc2o1)C(=O)NCc1ccccc1O (centres unmarked) [compound 186, 2-[(Benzofuran-2-ylmethyl)-amino]-N-(2-hydroxy-benzyl)-3-(1H-indol-3-yl)-2-methyl-propionamide] | 84 |
| CC(Cc1c[nH]c2ccccc12)(NCc1cc2ccccc2o1)C(=O)NCc1cc(C(F)(F)F)cc(C(F)(F)F)c1 (centres unmarked) [compound 51, 2-[(Benzofuran-2-ylmethyl)-amino]-N-(3,5-bis-trifluoromethyl-benzyl)-3-(1H-indol-3-yl)-2-methyl-propionamide] | 179 |
| CC(Cc1c[nH]c2ccccc12)(NCc1cc2ccccc2o1)C(=O)NCCN1CCCC1 (centres unmarked) [compound 155, 2-[(Benzofuran-2-ylmethyl)-amino]-3-(1H-indol-3-yl)-2-methyl-N-(2-pyrrolidin-1-yl-ethyl)-propionamide] | > 10000 |
| CC(Cc1c[nH]c2ccccc12)(NCc1cc2ccccc2o1)C(=O)NCC(O)c1ccccc1 (centres unmarked) [compound 73, 2-[(Benzofuran-2-ylmethyl)-amino]-N-(2-hydroxy-2-phenyl-ethyl)-3-(1H-indol-3-yl)-2-methyl-propionamide] | 1230 |
| CN1CCCC1CCNC(=O)C(C)(Cc1c[nH]c2ccccc12)NCc1cc2ccccc2o1 (centres unmarked) [compound 52, 2-[(Benzofuran-2-ylmethyl)-amino]-3-(1H-indol-3-yl)-2-methyl-N-[2-(1-methyl-pyrrolidin-2-yl)-ethyl]-propionamide] | > 10000 |
| COC(=O)c1ccc(CNC(=O)C(C)(Cc2c[nH]c3ccccc23)NCc2cc3ccccc3o2)c(OC)c1 (centres unmarked) [compound 81, 4-{[2-[(Benzofuran-2-ylmethyl)-amino]-3-(1H-indol-3-yl)-2-methyl-propionylamino]-methyl}-3-methoxy-benzoic acid methyl ester] | > 10000 |
| CC(Cc1cccc(C(F)(F)F)c1)NC(=O)C(C)(Cc1c[nH]c2ccccc12)NCc1cc2ccccc2o1 (centres unmarked) [compound 79, 2-[(Benzofuran-2-ylmethyl)-amino]-3-(1H-indol-3-yl)-2-methyl-N-[1-methyl-2-(3-trifluoromethyl-phenyl)-ethyl]-propionamide] | > 10000 |
| CC(NC(=O)C(C)(Cc1c[nH]c2ccccc12)NCc1cc2ccccc2o1)c1cccc2ccccc12 (centres unmarked) [compound 31, 2-[(Benzofuran-2-ylmethyl)amino]-3-(1H-indol-3-yl)-2-methyl-N-(1-naphthalen-1-yl-ethyl)-propionamide] | > 10000 |
| CC(Cc1c[nH]c2ccccc12)(NCc1cc2ccccc2o1)C(=O)NCC1CCCCC1 (centres unmarked) [compound 27, 2-[(Benzofuran-2-ylmethyl)-amino]-N-cyclohexylmethyl-3-(1H-indol-3-yl)-2-methyl-propionamide] | 311 |
| CC(Cc1c[nH]c2ccccc12)(NCc1cc2ccccc2o1)C(=O)NCC(=O)c1nc[nH]c1N (centres unmarked) [compound 95, N-[2-(5-Amino-1H-imidazol-4-yl)-2-oxo-ethyl]-2-[(benzofuran-2-ylmethyl)-amino]-3-(1H-indol-3-yl)-2-methyl-propionamide] | > 10000 |
| CC(Cc1c[nH]c2ccccc12)(NCc1cc2ccccc2o1)C(=O)NCc1ccccc1F (centres unmarked) [compound 180, 2-[(Benzofuran-2-ylmethyl)-amino]-N-(2-fluoro-benzyl)-3-(1H-indol-3-yl)-2-methyl-propionamide] | 266 |
| COc1cccc(CNC(=O)C(C)(Cc2c[nH]c3ccccc23)NCc2cc3ccccc3o2)c1 (centres unmarked) [compound 55, 2-[(Benzofuran-2-ylmethyl)-amino]-3-(1H-indol-3-yl)-N-(3-methoxy-benzyl)-2-methyl-propionamide] | 643 |
| CC(CN1CCCC1=O)NC(=O)C(C)(Cc1c[nH]c2ccccc12)NCc1cc2ccccc2o1 (centres unmarked) [compound 93, 2-[(Benzofuran-2-ylmethyl)-amino]-3-(1H-indol-3-yl)-2-methyl-N-[1-methyl-2-(2-oxo-pyrrolidin-1-yl)-ethyl]-propionamide] | > 10000 |
